Read-outs that look alike come from different tables or passages of the source.
How the values were obtained:
Format in all cases: cell-based
[1] = tested on: SARS-COV-2 (a prototype having D614G mutation)
[2] = tested on: SARS-COV-2 Omicron mutant BA.2 strain
[3] = tested on: SARS-COV-2 Omicron mutant BA.1 strain
[4] = tested on: SARS-COV-2 (a prototype having D614G mutation); remark: listed apart in the source

In the case of `CC(C)(C)OC(=O)NCCCCCCC(C)(C(=O)O)c1c[nH]c2ccccc12` (centres unmarked) [Compound #13], the IC50 [1] is reported as 1.1 µM.

`CC(C)C(=O)OC[C@H]1O[C@@H](n2ccc(NO)nc2=O)[C@H](O)[C@@H]1O` [Molnupiravir] was tested, and the IC50 [2] was 2.8 µM, the IC50 [3] was 4 µM and the IC50 [4] was 4.2 µM.

Work on `COc1cc(COc2ccc3[nH]cc(CC(=O)O)c3c2)cc(OC)c1` [Compound #35] yielded an IC50 [1] of 15.4 µM.

From patent US20250387369A1 (priority 2022, published 2025)
